ChEMBL document CHEMBL1926644, “Novel substrate-based inhibitors of human glutamate carboxypeptidase II with enhanced lipophilicity” (J Med Chem, 2011)

Key:
[1] = target: Glutamate carboxypeptidase 2 (Homo sapiens, UniProt Q04609); assay: Inhibition of glutamate carboxypeptidase 2 in human LNCAP cells assessed as glutamate formation using NAAG as substrate after 60 mins by fluorometric analysis; format: cell-based
Homo sapiens = species: Homo sapiens; assay: Ratio of Km for wild type recombinant human glutamate carboxypeptidase 2 to Km for recombinant human glutamate carboxypeptidase 2 K699S mutant

Glutamate carboxypeptidase 2, sequence (Q04609 whole entry): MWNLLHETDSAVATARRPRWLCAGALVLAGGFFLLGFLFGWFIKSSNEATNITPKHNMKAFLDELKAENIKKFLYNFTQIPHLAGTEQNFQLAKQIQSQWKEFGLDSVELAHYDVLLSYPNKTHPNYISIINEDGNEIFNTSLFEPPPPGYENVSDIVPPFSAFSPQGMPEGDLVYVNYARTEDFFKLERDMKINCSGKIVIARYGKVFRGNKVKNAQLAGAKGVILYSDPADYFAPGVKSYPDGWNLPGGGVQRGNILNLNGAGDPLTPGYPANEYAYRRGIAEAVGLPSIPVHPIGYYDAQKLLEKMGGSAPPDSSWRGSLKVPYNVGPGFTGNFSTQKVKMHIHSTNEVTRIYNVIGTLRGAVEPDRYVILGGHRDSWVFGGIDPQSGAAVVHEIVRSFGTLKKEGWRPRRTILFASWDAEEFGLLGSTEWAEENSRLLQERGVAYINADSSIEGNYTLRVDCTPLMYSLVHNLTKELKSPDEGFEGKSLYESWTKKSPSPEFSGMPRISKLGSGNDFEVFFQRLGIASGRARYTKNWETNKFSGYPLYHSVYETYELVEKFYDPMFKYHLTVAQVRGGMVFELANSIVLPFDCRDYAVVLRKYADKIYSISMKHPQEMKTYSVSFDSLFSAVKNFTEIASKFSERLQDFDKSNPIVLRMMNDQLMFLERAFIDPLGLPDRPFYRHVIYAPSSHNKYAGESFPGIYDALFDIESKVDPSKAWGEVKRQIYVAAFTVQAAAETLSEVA

C[C@H](NC(=O)N[C@@H](CCCCNC(=O)c1ccc(I)cc1)C(=O)O)C(=O)O
Ki [1]: 325 nM

CCCCCCC[C@H](NC(=O)N[C@@H](CCCCNC(=O)c1ccc(I)cc1)C(=O)O)C(=O)O
Ki [1]: 29 nM

O=C(O)CNC(=O)N[C@@H](CCCCNC(=O)c1ccc(I)cc1)C(=O)O
Ki [1]: 4390 nM

CC[C@H](NC(=O)N[C@@H](CCCCNC(=O)c1ccc(I)cc1)C(=O)O)C(=O)O
Ki [1]: 121 nM

CCC[C@H](NC(=O)N[C@@H](CCCCNC(=O)c1ccc(I)cc1)C(=O)O)C(=O)O
Ki [1]: 145 nM

CCCCCCCC(NC(=O)[C@H](CC(=O)O)NC(C)=O)C(=O)O (mixture of isomers)
Ratio (Homo sapiens): 3

CCCC[C@H](NC(=O)N[C@@H](CCCCNC(=O)c1ccc(I)cc1)C(=O)O)C(=O)O
Ki [1]: 56 nM

CCCCC[C@H](NC(=O)N[C@@H](CCCCNC(=O)c1ccc(I)cc1)C(=O)O)C(=O)O
Ki [1]: 20 nM

CCCCCC[C@H](NC(=O)N[C@@H](CCCCNC(=O)c1ccc(I)cc1)C(=O)O)C(=O)O
Ki [1]: 72 nM
